Measured values as given in patent US20240425457A1, “COMPOSITIONS AND METHODS FOR SUPPRESSING AND/OR TREATING METABOLIC DISEASES AND/OR A CLINICAL CONDITION THEREOF” (CK Biotech Inc., priority 2018, published 2024).
“Also recorded” adds a separate entry of the source.

Columns and labels:
HFD-induced obese mice = experiment: HFD-induced obese mice, oral administration during 16 weeks of HFD; format: in vivo; conditions: HFD 16 weeks
Experimental: Anti-obesity effects of […], a small molecule […] inhibitor. Referring now to FIG. 34, C57BL/6N mice were fed HFD for 16 weeks with or without oral administration of 25 mpk […] or Orlistat. Orlistat is an anti-obesity drug that is thought to act by limiting the absorption of fats from the diet (e.g., a lipase inhibitor). […] Referring now to FIG. 35, The C57BL/6N mice were grown with HFD for 16 weeks with or without oral administration of 25 mpk of […], […], and I3O. […] The increase in adipocyte cell sizes and enhancement of inflammation (evaluated by crown like structures; blue; FIG. 35B) were suppressed by treatment with […] in the HFD mice.

3T3-L1 preadipocytes = experiment: adipocyte differentiation of 3T3-L1 preadipocytes, Oil Red O staining; format: cell-based
Experimental: Cell culture and adipocyte differentiation. 3T3-L1 cells were seeded in six-well plates at a density of 3×10^4 cells per well. The cells were grown in Dulbecco's modified Eagle medium (DMEM) with 10% bovine calf serum (Gibco) until confluent. After confluence, cells were induced to differentiate in DMEM containing 10% fetal bovine serum (FBS; Gibco) and MDI (520 μM methylisobutylxanthine (IBMX; Sigma-Aldrich), 1 μM dexamethasone (Sigma-Aldrich), and 167 nM insulin (Gibco)) with or without A3334. On day 4, the medium was replaced with DMEM containing 10% FBS and 167 nM insulin with or without A3334 and changed with fresh identical medium every 2 days up to day 14 post-induction. Cells were incubated at 37° C. in a 5% CO2 environment.
Oil Red O staining. […] For the quantification of lipid contents, the Oil Red O was eluted by the addition of 500 μl isopropanol containing 4% nonidet P-40 to each well and the absorbance was measured spectrophotometrically at 590 nm.
ORO staining. […] In the morning each well was washed thoroughly with water and images of the ORO staining were recorded with a Nikon bright-field optical microscope (Nikon TE-2000U, Tokyo, Japan) and quantified for further statistical analysis. For quantify lipid contents, the ORO was eluted by addition of 500 µl isopropanol containing 4% nonidet P-40 to each well and the absorbance was measured spectrophotometrically at 590 nm. […]

Row | SMILES | adipocyte cell size and inflammation (crown like structures) (HFD-induced obese mice; 25 mpk oral) | adipogenic differentiation of 3T3-L1 preadipocytes (3T3-L1 preadipocytes) | HFD-induced body weight gain and abdominal obesity (HFD-induced obese mice; 25 mpk oral) | fatty liver and white adipocyte tissue (HFD-induced obese mice; 25 mpk oral) | glucose tolerance (GTT) and insulin tolerance (ITT) (HFD-induced obese mice; 25 mpk oral) | triglyceride, total cholesterol, HDL-cholesterol (HFD-induced obese mice; 25 mpk oral) | inhibitory effect on weight gain compared with orlistat (HFD-induced obese mice; both 25 mpk)
1 | CO/N=C1/C(=C2/C(=O)Nc3cc(Cl)c(Cl)cc32)Nc2ccccc21 [Compound A3051, 5,6-dichloroindirubin-3′-methoxime] | showed reduction in adipocyte size and anti-inflammatory effects, but those effects were lower when compared to that of the A3334 treatment | significant anti-differentiation effects |  |  |  |  | 
2 | COc1ccc2c(c1)/C(=C1/Nc3ccccc3/C1=N\O)C(=O)N2 [Compound A3334, 5-Methoxyindirubin-3′-oxime] | suppressed by treatment with A3334 | efficiently inhibited the adipogenic differentiation of 3T3-L1 preadipocytes; also recorded: significant anti-differentiation effects | not observed in the HFD mice treated with A3334 | suppression of fatty liver and white adipocyte tissue | significantly improved by the A3334 treatment | significantly reduced the level of triglyceride and total cholesterol and increased the level of HDL-cholesterol | much more significant than the effects observed in the HFD mice treated with orlistat
